The values below come from patent publication US11242337B2, “Compounds useful for treating gastrointestinal tract disorders” (Ardelyx, Inc., priority 2017, dated 2022).

Read-outs that look alike come from different tables or passages of the source.

The test system of assay [1] is human ileum monolayer culture. Kind of assay: Sustained inhibition of apical acid secretion in human organoid monolayer cell cultures (ileum). The class given is cell-based. The following applies: Homo sapiens, 48 h; 1 μM apical, dosed day 6, apical media pH day 8, vs DMSO. The method in brief:
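Human ileum organoid-derived Transwell monolayers, differentiated with ENRA from day 3, received 1 μM compound apically on day 6 (DMSO vehicle, duplicate wells). Apical medium pH was measured by electrode on day 8 as a readout of sustained NHE3-mediated proton secretion inhibition.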

The test system of assay [2] is human duodenum monolayer culture. Kind of assay: Increased trans-epithelial resistance (TEER) in human organoid monolayer cell cultures. It counts as cell-based. The note with it: 1 μM apical, baseline corrected. Here is the method:
Basal media (B consisted of advanced DMEM/F12 containing 10 mM HEPES (Invitrogen, 15630-080), 1:100 Glutamax (Invitrogen, 35050-061), and 1:100 penicillin/streptomycin (Invitrogen, 15140-122). Supplemented basal media (SBM) contained 1:100 N2 (Invitrogen, 17502-048), 1:50 B27 (Invitrogen, 12587-010), 1 mM N-acetylcysteine (Sigma, A9165), and 10 nM [Leu15]-gastrin I (Sigma, G9145). Growth factors used included 50 ng per mL mouse EGF (Peprotech, 315-09), 100 ng per mL mouse noggin (Peprotech, 250-38), 500 ng per mL human R-spondin 1 (R&D, 4645-RS), 100 ng per mL mouse Wnt-3a (R&D, 1324-WN), 20 μM Y-27632 (Tocris, 1254), 10 mM nicotinamide (Sigma, N0636), 500 nM A83-01 (Tocris, 2939), 10 μM SB202190 (Tocris, 1264). Transwells were 0.4 μm pore polyester membrane 24-well Transwell inserts (Corning). Cultures were incubated at 37° C. in 5% CO2.
Human duodenum organoids were cultured in WENRNAS (Wnt, EGF, noggin, R-spondin1, Nicotinamide, A83-01, SB202190) and typically grown for 7-12 days before being used to plate monolayer cultures. On day 0, organoid cultures embedded in Matrigel were treated with TrypLE Express to break organoids into small pieces and/or single cells. The cells were resuspended to 0.5×10^6 cells/mL in SBM containing WENRAY (Wnt, EGF, noggin, R-spondin1, A83-01, Y-27632). Following this step, 200 μL of cell suspension was plated into the apical side of a 24-well Transwell (100,000 cells/well) and 600 μL of SBM with WENRAY was added to the basolateral side. Duodenum cells were differentiated with ENA (EGF, noggin, A83-01) on day 3. The color of apical compartment turns from pink or orange to yellow due to the increase in NHE3 expression after differentiation.
Each human duodenum monolayer culture well was washed twice with fresh SBM on the apical side on day 6 or day 7 before dosing. All compound stocks were 10 mM dissolved DMSO. Each compound stock was individually mixed with fresh SBM to reach final compound concentration 1 μM and dosed only on the apical side of the monolayer (total volume 200 μl). DMSO at the equivalent concentration was used as the vehicle control. Duplicate wells were dosed for each compound. Transepithelial electrical resistance (TEER) was used as a quantitative technique to measure of tight junction permeability. TEER values were recorded (MERS00002, Millipore) before dosing and 30 mins and 1 hr after dosing for all wells. Each of the duplicate TEER values following treatment were corrected for the individual well baseline TEER. Baseline corrected TEER for each example compound was compared to the average of the DMSO wells and expressed as a percent TEER of vehicle control.

Setting [3] is: 1 hr after dosing, read-out: TEER at 60 minutes (% of Vehicle).
Setting [4] is: 0.5 h, 30 mins after dosing, read-out: TEER at 30 minutes (% of Vehicle).

In assay [1], `N#Cc1cc(Cl)cc2c1C[C@H](N1CCNCC1)[C@H]2Oc1ccc(S(=O)(=O)NCCOCCOCCNC(=O)NCCCCNC(=O)NCCOCCOCCNS(=O)(=O)c2ccc(O[C@H]3c4cc(Cl)cc(C#N)c4C[C@@H]3N3CCNCC3)c(F)c2)cc1F` [Example 43, 3-[2-(2-[2-[(4-[[(1S,2S)-6-Chloro-4-cyano-2-(piperazin-1-yl)-2,3-dihydro-1H-inden-1-yl]oxy]-3-fluorobenzene)sulfonamido]ethoxy]ethoxy)ethyl]-1-[4-([[2-(2-[2-[(4-[[(1S,2S)-6-chloro-4-cyano-2-(piperazin-1-yl)-2,3-dihydro-1H-inden-1-yl]oxy]-3-fluorobenzene)sulfonamido]ethoxy]ethoxy)ethyl]carbamoyl]amino)butyl]urea; bis(trifluoroacetic acid)] showed an inhibition at 1 µM of 50 to 70%. Moreover, the activity at 1 µM in assay [2] (setting [3]) and in assay [2] (setting [4]) was 100 to 130% each time.

Turning to `Cc1cc(S(=O)(=O)N[C@H]2CCN(CCOCCNC(=O)NCCCCNC(=O)NCCOCCN3CC[C@H](NS(=O)(=O)c4ccc(O[C@H]5c6cc(Cl)cc(Cl)c6C[C@@H]5N(C)C)c(C)c4)C3=O)C2=O)ccc1O[C@H]1c2cc(Cl)cc(Cl)c2C[C@@H]1N(C)C` [Example 91, 1-(2-[2-[(3S)-3-[(4-[[(1S,2S)-4,6-Dichloro-2-(dimethylamino)-2,3-dihydro-1H-inden-1-yl]oxy]-3-methylbenzene)sulfonamido]-2-oxopyrrolidin-1-yl]ethoxy]ethyl)-3-(4-[[(2-[2-[(3S)-3-[(4-[[(1S,2S)-4,6-dichloro-2-(dimethylamino)-2,3-dihydro-1H-inden-1-yl]oxy]-3-methylbenzene)sulfonamido]-2-oxopyrrolidin-1-yl]ethoxy]ethyl)carbamoyl]amino]butyl)urea], the inhibition at 1 µM in assay [1] was 50 to 70%. Moreover, the activity at 1 µM in assay [2] (setting [3]) and in assay [2] (setting [4]) was 100 to 130% in each case.

For `O=C(NCCCCNC(=O)NCCOCCN1CC[C@@H](NS(=O)(=O)c2ccc(O[C@H]3c4cc(Cl)cc(Cl)c4C[C@@H]3N3CCNCC3)c(F)c2)C1)NCCOCCN1CC[C@@H](NS(=O)(=O)c2ccc(O[C@H]3c4cc(Cl)cc(Cl)c4C[C@@H]3N3CCNCC3)c(F)c2)C1` [Example 105, 4-([(1S,2S)-4,6-Dichloro-2-(piperazin-1-yl)-2,3-dihydro-1H-inden-1-yl]oxy)-N—[(R)-1-(20-[(R)-3-([4-([(1S2S)-4,6-dichloro-2-(piperazin-1-yl)-2,3-dihydro-1H-inden-1-yl]oxy)-3-fluorophenyl]sulfonamido)pyrrolidin-1-yl]-7,14-dioxo-3,18-dioxa-6,8,13,15-tetraazaicosyl)pyrrolidin-3-yl]-3-fluorobenzenesulfonamide; tetra(trifluoroacetate)], in assay [1], the inhibition at 1 µM was more than 70%. Besides, the activity at 1 µM in assay [2] (setting [3]) and in assay [2] (setting [4]) was more than 130% in each case.

With `O=C(NCCCCNC(=O)NCCOCCN1CC[C@H](NS(=O)(=O)c2ccc(O[C@H]3c4cc(Cl)cc(Cl)c4C[C@@H]3N3CCNCC3)c(F)c2)C1)NCCOCCN1CC[C@H](NS(=O)(=O)c2ccc(O[C@H]3c4cc(Cl)cc(Cl)c4C[C@@H]3N3CCNCC3)c(F)c2)C1` [Example 106, 4-([(1S,2S)-4,6-Dichloro-2-(piperazin-1-yl)-2,3-dihydro-1H-inden-1-yl]oxy)-N—[(S)-1-(20-[(S)-3-([4-([(1S,2S)-4,6-dichloro-2-(piperazin-1-yl)-2,3-dihydro-1H-inden-1-yl]oxy)-3-fluorophenyl]sulfonamido)pyrrolidin-1-yl]-7,14-dioxo-3,18-dioxa-6,8,13,15-tetraazaicosyl)pyrrolidin-3-yl]-3-fluorobenzenesulfonamide; tetra(trifluoroacetate)], the inhibition at 1 µM in assay [1] was more than 70%. Moreover, the activity at 1 µM in assay [2] (setting [3]) and in assay [2] (setting [4]) was more than 130% in each case.

Consider `N#Cc1cc(Cl)cc2c1C[C@H](N1CCNCC1)[C@H]2Oc1ccc(S(=O)(=O)N[C@H]2CCN(CCOCCNC(=O)NCCCCNC(=O)NCCOCCN3CC[C@H](NS(=O)(=O)c4ccc(O[C@H]5c6cc(Cl)cc(C#N)c6C[C@@H]5N5CCNCC5)cc4)C3)C2)cc1` [Example 107, 4-([(1S,2S)-6-Chloro-4-cyano-2-(piperazin-1-yl)-2,3-dihydro-1H-inden-1-yl]oxy)-N—[(S)-1-(20-[(S)-3-([4-([(1S,2S)-6-chloro-4-cyano-2-(piperazin-1-yl)-2,3-dihydro-1H-inden-1-yl]oxy)phenyl]sulfonamido)pyrrolidin-1-yl]-7,14-dioxo-3,18-dioxa-6,8,13,15-tetraazaicosyl)pyrrolidin-3-yl]benzenesulfonamide; tetra(trifluoroacetate)], for which, in assay [1], the inhibition at 1 µM is more than 70%. The activity at 1 µM was 100 to 130% in assay [2] (setting [3]) and more than 130% in assay [2] (setting [4]).

For `N#Cc1cc(Cl)cc2c1C[C@H](N1CCNCC1)[C@H]2Oc1ccc(S(=O)(=O)N[C@H]2CCN(CCOCCNC(=O)NCCCCNC(=O)NCCOCCN3CC[C@H](NS(=O)(=O)c4ccc(O[C@H]5c6cc(Cl)cc(C#N)c6C[C@@H]5N5CCNCC5)c(F)c4)C3)C2)cc1F` [Example 110, 4-([(1S,2S)-6-Chloro-4-cyano-2-(piperazin-1-yl)-2,3-dihydro-1H-inden-1-yl]oxy)-N—[(S)-1-(20-[(S)-3-[(4-([(1S,2S)-6-chloro-4-cyano-2-(piperazin-1-yl)-2,3-dihydro-1H-inden-1-yl]oxy)-3-fluorophenyl)sulfonamide)pyrrolidin-1-yl]-7,14-dioxo-3,18-dioxa-6,8,13,15-tetraazaicosyl)pyrrolidin-3-yl]-3-fluorobenzenesulfonamide; tetra(trifluoroacetate)], the inhibition at 1 µM in assay [1] is more than 70%. Also, the activity at 1 µM in assay [2] (setting [3]) was 100 to 130%; in assay [2] (setting [4]), more than 130%.

`N#Cc1cc(Cl)cc2c1C[C@H](N1CCNCC1)[C@H]2Oc1ccc(S(=O)(=O)NC2CCN(C(=O)CCCNC(=O)NCCCCNC(=O)NCCCC(=O)N3CCC(NS(=O)(=O)c4ccc(O[C@H]5c6cc(Cl)cc(C#N)c6C[C@@H]5N5CCNCC5)cc4)CC3)CC2)cc1` [Example 115] registered an inhibition at 1 µM in assay [1] of more than 70%. Also, the activity at 1 µM in assay [2] (setting [3]) and in assay [2] (setting [4]) was 100 to 130% each time.

On to `N#Cc1cc(Cl)cc2c1C[C@H](N1CCCNCC1)[C@H]2Oc1ccc(S(=O)(=O)N[C@H]2CCN(CCOCCNC(=O)NCCCCNC(=O)NCCOCCN3CC[C@H](NS(=O)(=O)c4ccc(O[C@H]5c6cc(Cl)cc(C#N)c6C[C@@H]5N5CCCNCC5)cc4)C3)C2)cc1` [Example 126, 4-([(1S,2S)-6-Chloro-4-cyano-2-(1,4-diazepan-1-yl)-2,3-dihydro-1H-inden-1-yl]oxy)-N—[(S)-1-(20-[(S)-3-([4-([(1S,2S)-6-chloro-4-cyano-2-(1,4-diazepan-1-yl)-2,3-dihydro-1H-inden-1-yl]oxy)phenyl]sulfonamido)pyrrolidin-1-yl]-7,14-dioxo-3,18-dioxa-6,8,13,15-tetraazaicosyl)pyrrolidin-3-yl]benzenesulfonamide], for which the inhibition at 1 µM in assay [1] was less than 50%. The activity at 1 µM in assay [2] (setting [3]) and in assay [2] (setting [4]) was 100 to 130% each time.
